Source: patent US20040242508A1, “Novel hydroxyalkyl indolocarbazole derivatives, preparation method and pharmaceutical compositions containing the same” (priority 2001, published 2004)

Legend:
[1] = biological target: T1, Glycogen synthase kinase 3 (Rattus norvegicus, UniProt P18266); assay: Inhibitory activity in respect of GSK-3; format: biochemical; conditions: GS-1 peptide substrate, 15 μM ATP, 30 minutes at 30° C.
T1 construct: made in house; host or cells: Sf9 insect cells
Procedure: Glycogen synthase kinase 3 was purified starting from Sf9 cells transfected as described in Eur. J. Biochem., 1992, 305-311. The reaction mixture comprises, in a final volume of 30 μl: 1 mg/ml of BSA, 10 mM DTT, 6.7 μM GS-1 peptide as substrate, 15 μM [γ-^32P]ATP (3000 Ci/mmol, 1 mCi/ml), 10 mM MgCl2, 1 mM EGTA, 25mM Tris-HCl pH=7.5, 50 μg/ml of heparin, and the inhibitor at a given concentration. After 30 minutes at 30° C., 25 μl of the mixture are deposited on Whatman® P81 phosphocellulose paper filters, which are then washed 5 times with 10 ml of phosphoric acid (10 ml/l). The radioactivity of the filters is then counted in the presence of 1 ml of scintillation liquid. The IC50 values are estimated from dose-response curves.

CDK1/cyclin B = assay: Inhibitory activity in respect of CDK-1; format: biochemical, starfish (Marthasterias glacialis); conditions: histone H1 substrate, 15 μM ATP, 10 minutes at 30° C.
Procedure: The enzyme was purified from a starfish (Marthasterias glacialis) oocyte homogenate at M phase as described in Eur. J. Biochem, 1997, 243, 527-536 and J. Biol. Chem.,1999, 274, 11977-11986. The reaction mixture comprises, in a volume of 30 μl: 1 mg/ml of histone H1 as substrate, 15 μM [γ-^32P]ATP (3000 Ci/mmol, 1 mCi/ml), 15 mM MgCl2, 60 mM β-glycerophosphate, 15 mM p-nitrophenylphosphate, 25 mM MOPS pH=7.2, 5 mM EGTA, 1 mM DTT, 1 mM sodium vanadate, and the inhibitor at a given concentration. After 10 minutes' incubation at 30° C., 25 μl of the reaction mixture are removed and treated as described above in the GSK-3 protocol. The IC50 values are estimated from dose-response curves.

CDK5/p25 complex = CDK5/p25 complex (Homo sapiens, UniProt Q00535); assay: Inhibitory activity in respect of CDK5; format: biochemical; conditions: CDK5 activated by p25 (1/1 mixture), measured as for CDK1/cyclin B
Procedure: CDK5 was expressed in E. coli in the form of a GST (Glutathione-S-transferase) fusion protein and purified on a glutathione-agarose affinity column. CDK5 is then activated by p25 (1/1 mixture), prepared in the same manner. The enzymatic activity of the CDK5/p25 complex is measured as described above for CDK1/cyclin B. The IC50 values are estimated from dose-response curves.

T1 sequence (P18266 whole entry): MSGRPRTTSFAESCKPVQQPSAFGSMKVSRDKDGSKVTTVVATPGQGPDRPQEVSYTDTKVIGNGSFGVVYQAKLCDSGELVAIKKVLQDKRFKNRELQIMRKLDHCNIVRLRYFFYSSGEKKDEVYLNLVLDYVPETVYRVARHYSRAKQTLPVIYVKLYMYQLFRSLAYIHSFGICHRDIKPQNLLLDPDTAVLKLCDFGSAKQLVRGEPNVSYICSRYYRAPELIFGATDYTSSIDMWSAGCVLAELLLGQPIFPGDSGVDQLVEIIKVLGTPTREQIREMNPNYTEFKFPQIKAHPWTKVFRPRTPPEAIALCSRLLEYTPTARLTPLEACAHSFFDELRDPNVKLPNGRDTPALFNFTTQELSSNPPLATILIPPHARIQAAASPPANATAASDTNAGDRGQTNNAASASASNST
Sequence of CDK5/p25 complex (Q00535 whole entry, species assumed, the tested form may be a part): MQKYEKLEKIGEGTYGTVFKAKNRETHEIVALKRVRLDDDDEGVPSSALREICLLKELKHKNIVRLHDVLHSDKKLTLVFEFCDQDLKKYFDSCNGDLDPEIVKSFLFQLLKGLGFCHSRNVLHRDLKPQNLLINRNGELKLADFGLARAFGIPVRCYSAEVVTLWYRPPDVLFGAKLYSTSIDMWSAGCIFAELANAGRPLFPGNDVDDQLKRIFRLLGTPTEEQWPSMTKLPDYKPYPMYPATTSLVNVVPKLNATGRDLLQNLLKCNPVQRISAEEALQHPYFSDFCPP
Sequence of CDK5/p25 complex (Q15078 99-307 partner limits assumed, species assumed): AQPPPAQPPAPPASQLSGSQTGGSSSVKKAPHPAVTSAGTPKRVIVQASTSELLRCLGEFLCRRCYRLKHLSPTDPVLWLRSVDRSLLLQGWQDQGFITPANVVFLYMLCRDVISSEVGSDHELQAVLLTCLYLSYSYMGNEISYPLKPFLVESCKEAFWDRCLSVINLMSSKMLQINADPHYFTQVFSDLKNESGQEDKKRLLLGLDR

An IC50 [1] of 0.03 µM, an IC50 (CDK1/cyclin B) greater than 5 µM and an IC50 (CDK5/p25 complex) greater than 5 µM were found for `CO[C@H]1[C@H](O)[C@@H](O)[C@H](n2c3ccc(CO)cc3c3c4c(c5c6cc(CO)ccc6[nH]c5c32)C(=O)NC4=O)O[C@@H]1CO` [Example 1, 3,9-bis(hydroxymethyl)-1 2-(4-O-methyl-β-D-glucopyranosyl)-12,13-dihydro-5H-indolo[2,3-a]pyrrolo[3,4-c]carbazole-5,7(6H)-dione] in this work.
